# Results reported in patent US10888567B2, “Inhibitors of tryptophan dioxygenases (IDO1 and TDO) and their use in therapy” (AUCKLAND UNISERVICES LIMITED, priority 2014, dated 2021).
# Tests used:
# [1] = molecular target: human IDO1 (LLTC-hIDO1 cells) (Homo sapiens, UniProt P14902); assay: Cell-based assay for IDO1 inhibition (kynurenine in supernatant); settings: IDO1-transfected Lewis Lung carcinoma cells, 24 h; read-out: Cellular IC50
# Experimental: Culture supernatant from each well was then transferred into a fresh, flat-bottomed 96-well plate, mixed with trichloroacetic acid (10% final concentration) and incubated for 20 min at 60° C. […] The absorbance of each well was read at 480 nm, and the concentration that inhibited 50% cellular enzyme activity was calculated.
# [2] = molecular target: Recombinant human IDO1 (rhIDO1) (Homo sapiens (Human), UniProt P14902); assay: Enzymatic assay for IDO1 activity; assay type: biochemical; settings: rhIDO1 9 nM, 80 μM TRP, 37° C. 30 min
# Experimental: Recombinant human IDO1 (rhIDO1) was expressed and purified from cultures of EC538 strain of E. coli transformed with pREP4 and pQE9-IDO plasmid. Reaction mixes were set up in 384-well microplates containing 50 mM phosphate buffer, 10 mM ascorbic, 10 μM methylene blue, 100 μg/mL catalase, 80 μM TRP, 0.01% Tween 20 (v/v) mixed with rhIDO1 (15 μL) at a final concentration of 9 nM in a total volume of 30 μL assay medium. The plates were incubated at 37° C. for 30 min, and the enzymatic reaction was terminated by adding piperidine (200 mM) and heated at 65° C. for 20 min. Fluorescence intensity was read at λex 400 nm and λem 500 nm. Test compounds were dissolved in 100% DMSO and pre-diluted in assay medium prior to adding rhIDO1. IDO1 inhibition (%) was calculated as
# [formula] All experiments were carried out in triplicates, and statistical Analyses were conducted in Prism v5 (Graphpad Software, Inc., La Jolla, Calif., USA). Cell-Based Assay for IDO1 Inhibition
# [3] = system: Lewis Lung carcinoma cells transfected to express IDO1 (LLTC-hIDO1); assay: MTT cell viability in the cellular IDO1 assay; assay type: cell-based; settings: same experiment as cellular IDO1 assay
# Experimental: The viability of the cells in each well in the same experiment was determined using the 3-(4,5-dimethylthiazolyl-2-yl)-2,5-diphenyltetrazolium bromide (MTT) colourimetric assay. After the removal of the supernatant for determination of IDO1 inhibition, the cells were incubated with MTT (500 μg/mL) until crystal formation was observed. […] DMSO (100 μL/well) was added to dissolve the crystals and then the absorbance in each well was measured at 570 nm. Cell viability in each well was expressed as a percentage of untreated controls. Triplicate cultures were used for all experiments unless stated otherwise.
# Chain of Recombinant human IDO1 (rhIDO1) (P14902 whole entry): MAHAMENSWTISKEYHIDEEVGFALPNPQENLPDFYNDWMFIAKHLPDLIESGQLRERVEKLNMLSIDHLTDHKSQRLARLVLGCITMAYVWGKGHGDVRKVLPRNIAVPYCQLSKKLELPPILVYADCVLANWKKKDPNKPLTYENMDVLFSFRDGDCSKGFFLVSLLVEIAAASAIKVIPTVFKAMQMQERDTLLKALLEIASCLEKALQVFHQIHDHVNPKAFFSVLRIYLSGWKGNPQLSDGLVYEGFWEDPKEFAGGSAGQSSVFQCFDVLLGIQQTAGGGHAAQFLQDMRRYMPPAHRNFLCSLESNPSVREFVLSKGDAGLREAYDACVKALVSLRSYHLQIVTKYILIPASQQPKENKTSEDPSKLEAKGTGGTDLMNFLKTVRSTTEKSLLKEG
IC50 [1] [µM],IC50 [2] [µM],IC50 [3] [µM],SMILES
10 to 100,> 100,> 100,"Cc1cnc2onc(N)c2c1 [Compound 44, 5-Methylisoxazolo[5,4-b]pyridin-3-amine]"
10 to 100,> 100,> 100,"COc1ccccc1Oc1ccc2c(N)noc2n1 [Compound 90, 6-(2-Methoxyphenoxy)isoxazolo[5,4-b]pyridin-3-amine]"
,> 100,,"Nc1noc2nc(Oc3ccccc3)ccc12 [Compound 83, 6-Phenoxyisoxazolo[5,4-b]pyridin-3-amine]"
> 100,> 100,> 100,"Nc1noc2nc(C(=O)O)ccc12 [Compound 81, 3-Aminoisoxazolo[5,4-b]pyridine-6-carboxylic acid]"
> 100,> 100,> 100,"Nc1noc2nc3c(cc12)CCC3 [Compound 59, 6,7-Dihydro-5H-cyclopenta[b]isoxazolo[4,5-e]pyridin-3-amine]"
1 to 10,> 100,> 100,"Nc1noc2nc3c(cc12)CCCC3 [Compound 10, 5,6,7,8-Tetrahydroisoxazolo[5,4-b]quinolin-3-amine]"
> 100,> 100,> 100,"COc1ccc(Nc2ccc3c(N)noc3n2)cc1 [Compound 96, N^6-(4-Methoxyphenyl)isoxazolo[5,4-b]pyridine-3,6-diamine]"
1 to 10,> 100,> 100,"Nc1noc2nc(-c3ccco3)ccc12 [Compound 58, 6-(Furan-2-yl)isoxazolo[5,4-b]pyridin-3-amine]"
10 to 100,> 100,> 100,"CSc1ncc2c(N)noc2n1 [Compound 63, 6-(Methylthio)isoxazolo[5,4-d]pyrimidin-3-amine]"
,> 100,,"Nc1noc2nc(N3CCOCC3)c(F)cc12 [Compound 55, 5-Fluoro-6-morpholinoisoxazolo[5,4-b]pyridin-3-amine]"
,> 100,,"CCOC(=O)c1cc2c(N)noc2nc1C [Compound 53, Ethyl 3-amino-6-methylisoxazolo[5,4-b]pyridine-5-carboxylate]"
,> 100,,"Nc1noc2ncc(-c3ccccc3O)cc12 [Compound 28, 2-(3-Aminoisoxazolo[5,4-b]pyridin-5-yl)phenol]"
,> 100,,"Nc1noc2nc3c(cc12)COCC3 [Compound 62, 7,8-Dihydro-5H-isoxazolo[5,4-b]pyrano[3,4-e]pyridin-3-amine]"
10 to 100,> 100,> 100,"Nc1noc2nc(Oc3cccc(OC(F)(F)F)c3)ccc12 [Compound 88, 6-(3-(Trifluoromethoxy)phenoxy)isoxazolo[5,4-b]pyridin-3-amine]"
1 to 10,< 1,> 100,"Nc1noc2nc(C(F)(F)F)ccc12 [Compound 47, 6-(Trifluoromethyl)isoxazolo[5,4-b]pyridin-3-amine]"
,10 to 100,,"Cc1nc2onc(N)c2c(C)c1C [Compound 5, 4,5,6-Trimethylisoxazolo[5,4-b]pyridin-3-amine]"
10 to 100,> 100,> 100,"Cc1cc(C(F)(F)F)c2c(N)noc2n1 [Compound 46, 6-Methyl-4-(trifluoromethyl)isoxazolo[5,4-b]pyridin-3-amine]"
> 100,> 100,> 100,"CN(C)CCCOc1ccc2c(N)noc2n1 [Compound 76, 6-(3-(Dimethylamino)propoxy)isoxazolo[5,4-b]pyridin-3-amine]"
> 100,> 100,> 100,"CN(C)c1nc2onc(N)c2cc1F [Compound 57, 5-Fluoro-N6,N6-dimethylisoxazolo[5,4-b]pyridine-3,6-diamine]"
> 100,> 100,> 100,"Nc1noc2nccc(-c3ccccc3)c12 [Compound 13, 4-Phenylisoxazolo[5,4-b]pyridin-3-amine]"
< 1,10 to 100,> 100,"Nc1noc2ncc(Cl)cc12 [Compound 8, 5-Chloroisoxazolo[5,4-b]pyridin-3-amine]"

IC50 [1] [µM],IC50 [2] [µM],IC50 [3] [µM],SMILES
1 to 10,> 100,> 100,"Nc1noc2nc(-c3cccs3)ccc12 [Compound 74, 6-(2-Thienyl)isoxazolo[5,4-b]pyridin-3-amine]"
< 1,1 to 10,> 100,"Nc1noc2ncc(I)cc12 [Compound 16, 5-Iodoisoxazolo[5,4-b]pyridin-3-amine]"
10 to 100,> 100,> 100,"Nc1noc2nc(Oc3ccccc3OC(F)(F)F)ccc12 [Compound 87, 6-(2-(Trifluoromethoxy)phenoxy)isoxazolo[5,4-b]pyridin-3-amine]"
> 100,> 100,> 100,"Cn1nccc1-c1ccc2c(N)noc2n1 [Compound 75, 6-(1-Methyl-1H-pyrazol-5-yl)isoxazolo[5,4-b]pyridin-3-amine]"
10 to 100,> 100,> 100,"Nc1noc2nc(Oc3cccc(C(F)(F)F)c3)ccc12 [Compound 93, 6-(3-(Trifluoromethyl)phenoxy)isoxazolo[5,4-b]pyridin-3-amine]"
10 to 100,> 100,> 100,"Cc1ncc2c(N)noc2n1 [Compound 64, 6-Methylisoxazolo[5,4-d]pyrimidin-3-amine]"
1 to 10,10 to 100,> 100,"CSc1ccc2c(N)noc2n1 [Compound 79, 6-(Methylthio)isoxazolo[5,4-b]pyridin-3-amine]"
,> 100,,"CN(C)c1ccc2c(N)noc2n1 [Compound 18, N^6,N^6-Dimethylisoxazolo[5,4-b]pyridine-3,6-diamine]"
,> 100,,"CC1(C)CCc2nc3onc(N)c3cc2C1 [Compound 61, 6,6-Dimethyl-5,6,7,8-tetrahydroisoxazolo[5,4-b]quinolin-3-amine]"
,> 100,,"COc1ccc(Oc2ccc3c(N)noc3n2)cc1 [Compound 92, 6-(4-Methoxyphenoxy)isoxazolo[5,4-b]pyridin-3-amine]"
,> 100,,"Nc1noc2ncc(-c3ccc(F)cc3)cc12 [Compound 30, 5-(4-Fluorophenyl)isoxazolo[5,4-b]pyridin-3-amine]"
,> 100,,"Nc1noc2ccncc12 [Compound 17, Isoxazolo[4,5-c]pyridin-3-amine]"
,> 100,,"Cc1ccc2c(N)noc2n1 [Compound 7, 6-Methylisoxazolo[5,4-b]pyridin-3-amine]"
,> 100,,"Nc1ccc2c(N)noc2n1 [Compound 43, Isoxazolo[5,4-b]pyridine-3,6-diamine]"
,> 100,,"Nc1noc2nc(Oc3cccc(Cl)c3)ccc12 [Compound 85, 6-(3-Chlorophenoxy)isoxazolo[5,4-b]pyridin-3-amine]"
,> 100,,"Nc1noc2nc(Oc3ccc(Cl)cc3)ccc12 [Compound 86, 6-(4-Chlorophenoxy)isoxazolo[5,4-b]pyridin-3-amine]"
,> 100,,"COc1ccnc2onc(N)c12 [Compound 51, 4-Methoxyisoxazolo[5,4-b]pyridin-3-amine]"
,> 100,,"CN(C)c1ccnc2onc(N)c12 [Compound 19, N^4,N^4-Dimethylisoxazolo[5,4-b]pyridine-3,4-diamine]"
,> 100,,"Nc1noc2nc3c(cc12)CCCCC3 [Compound 60, 6,7,8,9-Tetrahydro-5H-cyclohepta[b]isoxazolo[4,5-e]pyridin-3-amine]"
,> 100,,"COc1cccc(Oc2ccc3c(N)noc3n2)c1 [Compound 91, 6-(3-Methoxyphenoxy)isoxazolo[5,4-b]pyridin-3-amine]"
,> 100,,"Nc1noc2ncc(F)cc12 [Compound 14, 5-Fluoroisoxazolo[5,4-b]pyridin-3-amine]"

SMILES,IC50 [1] [µM],IC50 [2] [µM],IC50 [3] [µM]
"CNc1noc2nc(C)c(Cl)c(C)c12 [Compound 20, 5-Chloro-N^3,4,6-trimethylisoxazolo[5,4-b]pyridin-3-amine]",10 to 100,> 100,> 100
"Nc1noc2nc(Cl)c(Cl)cc12 [Compound 67, 5,6-Dichloroisoxazolo[5,4-b]pyridin-3-amine]",1 to 10,< 1,> 100
"Nc1noc2nc(-c3ccc(F)cc3F)ccc12 [Compound 73, 6-(2,4-Difluorophenyl)isoxazolo[5,4-b]pyridin-3-amine]",10 to 100,> 100,> 100
"COc1ccc(-c2ccc3c(N)noc3n2)cc1 [Compound 70, 6-(4-Methoxyphenyl)isoxazolo[5,4-b]pyridin-3-amine]",> 100,> 100,> 100
